{"source": "patent US9849143B2", "about": "“Broad spectrum antiviral and methods of use” (The Burlington HC Research Group, Inc., priority 2006, dated 2017)", "key": {"[1]": {"conditions": "in vivo; cited from earlier work"}, "[2]": {"conditions": "mouse, in vivo, cited from earlier work"}, "[3]": {"conditions": "mouse, in vivo; cited from earlier work"}, "HIV": {"tested_on": "HIV", "type": "cell-based", "conditions": "for duration of action: cell culture, cysteamine re-added every 12 hours, WR-1065 added once in a 72 hour period"}, "Adenovirus 5p": {"tested_on": "Adenovirus 5p", "assay": "Plaque reduction assay in A549 cells", "type": "cell-based"}, "PHA blasts": {"tested_on": "PHA blasts", "assay": "Viability of PHA blasts exposed to WR-1065", "type": "cell-based, Human", "conditions": "uninfected PHA blasts"}, "Ad4-p (strain RI-67)": {"tested_on": "Ad4-p (strain RI-67)", "assay": "Infectious virus yield in A549 cell monolayers, Ad4-p", "type": "cell-based, adenovirus species E"}, "A/HKx31 (H3N2)": {"tested_on": "A/HKx31 (H3N2)", "type": "cell-based, influenza A"}, "Ad7-p (strain Gomen)": {"tested_on": "Ad7-p (strain Gomen)", "assay": "Infectious virus yield in A549 cell monolayers, Ad7-p", "type": "cell-based, adenovirus species B"}, "[4]": {"tested_on": "Ad5-p (strain Adenoid 75)", "assay": "Infectious virus yield in A549 cell monolayers, Ad5-p", "type": "cell-based, adenovirus species C"}, "[5]": {"conditions": "rhesus macaques, cited from earlier work"}, "[6]": {"conditions": "Experiment #1, 10 μM AZT, 72 hours"}, "[7]": {"conditions": "Experiment #1, 1000 μM WR1065, 72 hours"}}, "note": "Where “and” joins values, the source holds several entries; their conditions need not be identical. Identical values can stand only once. Like-named read-outs stand apart in the source and are kept apart here."}
{"smiles": "NCCCNCCSP(=O)(O)O", "note": "[Amifostine, S-2-(3-aminopropyl)aminoethyl phosphorothioic acid]", "values": [{"measurement": "effects of single doses", "setting": "[1]", "result": "no untoward effects"}, {"measurement": "maximally tolerated dose (MTD)", "setting": "[2]; ip", "result": 432, "unit": "mg/kg BW"}, {"measurement": "maximally tolerated dose (MTD)", "setting": "[2]; po", "result": 720, "unit": "mg/kg BW"}, {"measurement": "100% effective radioprotective dose", "setting": "[3]", "result": "about one half"}]}
{"smiles": "Cc1cn([C@H]2C[C@H](N=[N+]=[N-])[C@@H](CO)O2)c(=O)[nH]c1=O", "note": "[AZT, Zidovudine]", "values": [{"measurement": "Estimated percent viral inhibition", "setting": "HIV; [6]", "result": "~100", "unit": "%"}, {"measurement": "HIV P24", "setting": "HIV; [6]", "result": 0.13, "unit": "pg/mL"}, {"measurement": "Estimated percent viral inhibition", "setting": "HIV; Experiment #3, 10 μM AZT", "result": "~100", "unit": "%"}, {"measurement": "HIV P24", "setting": "HIV; Experiment #3, 10 μM AZT", "result": 2.9, "unit": "pg/mL"}]}
{"smiles": "NCCS", "note": "[cysteamine, Cysteamine]", "values": [{"measurement": "suppression of HIV replication", "setting": "HIV; 200 μM cysteamine, in vitro assay system as described above", "result": "~100", "unit": "%"}, {"measurement": "duration of action", "setting": "HIV", "result": "very short"}]}
{"smiles": "NCCCNCCS", "note": "[WR-1065, 2-(3-aminopropylamino)ethanethiol]", "values": [{"measurement": "plaque number (plaque reduction assay)", "setting": "Adenovirus 5p; 16.5 μM WR1065", "result": 63}, {"measurement": "plaque number (plaque reduction assay)", "setting": "Adenovirus 5p; 50 μM WR1065", "result": 41}, {"measurement": "reduction of plaque number", "setting": "Adenovirus 5p; 50 μM WR1065", "result": 36, "unit": "%"}, {"measurement": "% Viable Cells (compared to control)", "setting": "PHA blasts; 1 μM WR-1065, 72 hours", "result": 83, "unit": "%"}, {"measurement": "% Viable Cells (compared to control)", "setting": "PHA blasts; 5 μM WR-1065, 72 hours", "result": 82, "unit": "%"}, {"measurement": "% Viable Cells (compared to control)", "setting": "PHA blasts; 10 μM WR-1065, 72 hours", "result": 90, "unit": "%"}, {"measurement": "% Viable Cells (compared to control)", "setting": "PHA blasts; 50 μM WR-1065, 72 hours", "result": 89, "unit": "%"}, {"measurement": "% Viable Cells (compared to control)", "setting": "PHA blasts; 100 μM WR-1065, 72 hours", "result": 63, "unit": "%"}, {"measurement": "% Viable Cells (compared to control)", "setting": "PHA blasts; 500 μM WR-1065, 72 hours", "result": 73, "unit": "%"}, {"measurement": "% Viable Cells (compared to control)", "setting": "PHA blasts; 1000 μM WR-1065, 72 hours", "result": 30, "unit": "%"}, {"measurement": "Mean infectious virus yields 96-h post infection & WR 1065 treatment", "setting": "Ad4-p (strain RI-67); Trial 1, <33 μM WR 1065", "result": "1,420 PFUs × 10^6"}, {"measurement": "Mean infectious virus yields 96-h post infection & WR 1065 treatment", "setting": "Ad4-p (strain RI-67); Trial 1, <100 μM WR 1065", "result": 980, "unit": "PFUs × 10^6"}, {"measurement": "Mean infectious virus yields 96-h post infection & WR 1065 treatment", "setting": "Ad4-p (strain RI-67); Trial 2, <100 μM WR 1065", "result": 9.5, "unit": "PFUs × 10^6"}, {"measurement": "Mean plaque number", "setting": "A/HKx31 (H3N2)", "result": "59.3 and 57 and 48"}, {"measurement": "Mean infectious virus yields 96-h post infection & WR 1065 treatment", "setting": "Ad7-p (strain Gomen); Trial 1, <10 μM WR 1065", "result": 1.85, "unit": "PFUs × 10^6"}, {"measurement": "Mean infectious virus yields 96-h post infection & WR 1065 treatment", "setting": "Ad7-p (strain Gomen); Trial 1, <33 μM WR 1065", "result": 0.85, "unit": "PFUs × 10^6"}, {"measurement": "Mean infectious virus yields 96-h post infection & WR 1065 treatment", "setting": "Ad7-p (strain Gomen); Trial 1, <100 μM WR 1065", "result": 1.15, "unit": "PFUs × 10^6"}, {"measurement": "Mean infectious virus yields 96-h post infection & WR 1065 treatment", "setting": "Ad7-p (strain Gomen); Trial 2, <100 μM WR 1065", "result": 30.5, "unit": "PFUs × 10^6"}, {"measurement": "Estimated percent viral inhibition", "setting": "HIV; [7]", "result": "~100", "unit": "%"}, {"measurement": "HIV P24", "setting": "HIV; [7]", "result": 0.13, "unit": "pg/mL"}, {"measurement": "suppression of HIV replication", "setting": "HIV; WR-1065 at a concentration of less than 100 μM", "result": "> 99.9", "unit": "%"}, {"measurement": "duration of action", "setting": "HIV", "result": "long duration of action"}, {"measurement": "in vitro anti-HIV activity relative to cysteamine", "setting": "HIV; compared by effective concentration", "result": "over 2 fold"}, {"measurement": "Mean infectious virus yields 96-h post infection & WR 1065 treatment", "setting": "[4]; Trial 1, <10 μM WR 1065", "result": 9.0, "unit": "PFUs × 10^6"}, {"measurement": "Mean infectious virus yields 96-h post infection & WR 1065 treatment", "setting": "[4]; Trial 1, <33 μM WR 1065", "result": 5.65, "unit": "PFUs × 10^6"}, {"measurement": "Mean infectious virus yields 96-h post infection & WR 1065 treatment", "setting": "[4]; Trial 1, <100 μM WR 1065", "result": 2.25, "unit": "PFUs × 10^6"}, {"measurement": "Mean infectious virus yields 96-h post infection & WR 1065 treatment", "setting": "[4]; Trial 2, <33 μM WR 1065", "result": 600, "unit": "PFUs × 10^6"}, {"measurement": "Mean infectious virus yields 96-h post infection & WR 1065 treatment", "setting": "[4]; Trial 2, <100 μM WR 1065", "result": 500, "unit": "PFUs × 10^6"}, {"measurement": "Mean infectious virus yields 96-h post infection & WR 1065 treatment", "setting": "[4]; Trial 3, <33 μM WR 1065", "result": "1,660 PFUs × 10^6"}, {"measurement": "Concentration (plasma)", "setting": "[5]; 1 h after duodenal administration of 150 mg/kg BW of parent drug", "result": 6210, "unit": "ng/mL"}, {"measurement": "Concentration (plasma)", "setting": "[5]; 2 h after duodenal administration of 150 mg/kg BW of parent drug", "result": 4140, "unit": "ng/mL"}, {"measurement": "Concentration (plasma)", "setting": "[5]; 6 h after duodenal administration of 150 mg/kg BW of parent drug", "result": 2070, "unit": "ng/mL"}]}
